Reference: patent publication US11254657B2, “Plinabulin compositions” (priority 2015, dated 2022)
Entries after “also recorded” stand apart in the source; their conditions may differ. Read-outs that look alike come from different tables or passages of the source.

How the values were obtained:
Type in all cases: physicochemical
[1] = High humidity exposure stability; conditions: >95% RH for 13 days
From the text: Form 1 was also stable under various humidity conditions. On the other hand, the crystalline forms converted to Form I monohydrate when exposed to moisture.

[2] = Drying study in vacuum oven at 50° C.; conditions: overnight and over the weekend
Description: A sample of plinabulin monohydrate (Form 1) was placed in a vacuum oven at 50° C. overnight and over the weekend.

[3] = Gravimetric solubility measurement in solvents; conditions: for solubility at 3 days: thermodynamic from solid, slurried 3 days
Description: A plinabulin compound was slurried in 15 different solvents/solvent mixtures as shown in Table 9 at 15° C. and 45° C. for 3 days for gravimetric solubility measurement. About 70 mg of solid was added to a vial for each experiment followed by addition of 0.7 mL of the respective solvents. Next, the slurry was centrifuged and the supernatant was added to pre-weighed vials and evaporated to dryness under vacuum. The vials with remaining solids were weighed again to calculate the solubility. […]

[4] = Karl Fischer moisture level on extended drying and humid exposure
Description: Analysis by KF after drying at 45° C. under vacuum for an additional 70 hours indicated the moisture level had decreased to 4.1%. […] This sample was placed in a glove bag in an open container with an open container of water and the moisture level monitored. After 4 hours the moisture level was measured as 5.0%. After 18.5 hours the moisture level was measured as 4.8% and after 51 hours the KF result was 4.9%.
A sample of plinabulin compound (4.92 g) was stirred in ethanol (147.6 g) and heated to reflux (fully soluble at 75° C.). The solution was then allowed to cool and monitored for precipitation. A precipitate was observed when the solution was at 48° C. The mixture was re-heated to reflux providing a clear yellow solution. To the hot solution was added 295 g of water (approximately twice the mass of ethanol) allowing the mixture to cool during the addition. A precipitate was observed after charging approximately 150 mL of water with the temperature at 48° C. This solution was allowed to cool to room temperature. The solids were filtered and washed three times with 20 g of water. The solid was dried at 40-45° C. for 2.5 days to give 4.82 g, 98.0% recovery. […] Analysis by KF after drying at 45° C. under vacuum for an additional 70 hours indicated the moisture level had decreased to 4.4%. The XRPD of this sample indicates it was essentially unchanged, a mixture of Forms 1 and 3 with additional peaks (at around 12.26°, 15.19° and 28.79° 2θ degrees). This sample was placed in a glove bag in an open container with an open container of water and the moisture level monitored. After 4 hours the moisture level was measured as 5.0%. After 18.5 hours the moisture level was measured as 4.9% and after 51 hours the KF result was 5.1%.

[5] = Dissolution in kolliphor (40% wt) and propylene glycol (60% wt); conditions: mixture of kolliphor (40% wt) and propylene glycol (60% wt)
Description: A batch of plinabulin having a KF analysis of about 3.1% for water content was added to a mixture of kolliphor (40% wt) and propylene glycol (60% wt). […] The batch was reprocessed according to the steps described in FIG. 29 to form the plinabulin monohydrate (Form 1).

[6] = Dynamic Vapor Sorption (DVS) test
Description: The DSC data were collected using a TA Instruments Q10 DSC. Typically, samples (˜2 mg) were placed in hermetic alodined aluminum sample pans and scanned from 30 to 300° C. at a rate of 10° C./min under a nitrogen purge of 50 mL/min. The TGA data were collected using a TA Instruments TGA Q500. Typically, samples (˜10 mg) were placed in an open, pre-tared aluminum sample pan and scanned from 30 to 300° C. at a rate of 10° C./min using a nitrogen purge at 60 mL/min. The X-ray powder diffraction patterns were obtained using a Bruker D8 Advance equipped with a Cu Ku radiation source ([…]), a 9-position sample holder and a LYNXEYE Super Speed Detector. Typically, the duration of each scan was 180 seconds and the 2θ range was 4 to 40°. Samples were placed on zero-background, silicon plate holders. Samples were analyzed using an Aquadyne DVS-2 gravimetric water sorption analyzer. The relative humidity was adjusted between 2-95% and the weight of sample was continuously monitored and recorded.
A DVS experiment was run on the plinabulin monohydrate (Form 1). The sample gained ˜0.1% mass at 95% RH which was lost on drying to 0% RH without hysteresis. […] The XRPD pattern of the pre-DVS sample (Form 1 plinabulin monohydrate) overlays with the XRPD patterns of the post-DVS sample (Form 1 plinabulin monohydrate).

[7] = listed as plinabulin monohydrate (Form 1)

Question: With `CC(C)(C)c1[nH]cnc1/C=c1\[nH]c(=O)/c(=C/c2ccccc2)[nH]c1=O` [plinabulin monohydrate, (3Z,6Z)-3-Benzylidene-6-{[5-(2-methyl-2-propanyl)-1H-imidazol-4-yl]methylene}-2,5-piperazinedione] as the compound, how does the “stability in high humidity environment” value ([1]; listed as form 1) read?
Answer: Its value is “no change in solid form”.

Question: What about the “stability in high humidity environment” value [1, 7] of the same compound?
Answer: Its value is “no change in solid form; also recorded: remained stable with no change in mass”.

Question: What about the “change in weight during drying” value [2] of the same compound?
Answer: The value was “no change in weight”.

Question: And the stability on drying [2, 7]?
Answer: The stability on drying was “stable to drying; also recorded: remained stable”.

Question: What about the solubility at 3 days ([3]; organic solvent or mixture, ACN, 15° C., read-out: Solubility at 15° C.) of the same compound?
Answer: The solubility at 3 days was 3000 µg/mL.

Question: What about the solubility at 3 days ([3]; organic solvent or mixture, ACN, 45° C., read-out: Solubility at 45° C.) of the same compound?
Answer: Its solubility at 3 days is 7000 µg/mL.

Question: What about the solubility at 3 days ([3]; organic solvent or mixture, Acetone:water (95:5), 15° C., read-out: Solubility at 15° C.) of the same compound?
Answer: Its solubility at 3 days is 6000 µg/mL.

Question: And the solubility at 3 days ([3]; organic solvent or mixture, Acetone:water (95:5), 45° C., read-out: Solubility at 45° C.)?
Answer: Its solubility at 3 days is 16000 µg/mL.

Question: And the solubility at 3 days ([3]; organic solvent or mixture, Acetone, 15° C., read-out: Solubility at 15° C.)?
Answer: The solubility at 3 days was 11000 µg/mL.

Question: And the solubility at 3 days ([3]; organic solvent or mixture, Acetone, 45° C., read-out: Solubility at 45° C.)?
Answer: Its solubility at 3 days is 20000 µg/mL.

Question: And the solubility at 3 days ([3]; organic solvent or mixture, DCM, 15° C., read-out: Solubility at 15° C.)?
Answer: The solubility at 3 days was 2000 µg/mL.

Question: What about the solubility at 3 days ([3]; organic solvent or mixture, EtOAc, 15° C., read-out: Solubility at 15° C.) of the same compound?
Answer: The solubility at 3 days was 3000 µg/mL.

Question: What about the solubility at 3 days ([3]; organic solvent or mixture, EtOAc, 45° C., read-out: Solubility at 45° C.) of the same compound?
Answer: Its solubility at 3 days is 8000 µg/mL.

Question: What about the solubility at 3 days ([3]; organic solvent or mixture, EtOH:water (95:5), 15° C., read-out: Solubility at 15° C.) of the same compound?
Answer: Its solubility at 3 days is 4000 µg/mL.

Question: What about the solubility at 3 days ([3]; organic solvent or mixture, EtOH:water (95:5), 45° C., read-out: Solubility at 45° C.) of the same compound?
Answer: Its solubility at 3 days is 13000 µg/mL.

Question: And the solubility at 3 days ([3]; organic solvent or mixture, EtOH, 15° C., read-out: Solubility at 15° C.)?
Answer: The solubility at 3 days was 5000 µg/mL.

Question: And the solubility at 3 days ([3]; organic solvent or mixture, EtOH, 45° C., read-out: Solubility at 45° C.)?
Answer: Its solubility at 3 days is 13000 µg/mL.

Question: And the solubility at 3 days ([3]; organic solvent or mixture, Heptane, 15° C., read-out: Solubility at 15° C.)?
Answer: Its solubility at 3 days is < 1000 µg/mL.

Question: What about the solubility at 3 days ([3]; organic solvent or mixture, Heptane, 45° C., read-out: Solubility at 45° C.) of the same compound?
Answer: Its solubility at 3 days is 3000 µg/mL.

Question: And the solubility at 3 days ([3]; organic solvent or mixture, IPA, 15° C., read-out: Solubility at 15° C.)?
Answer: The solubility at 3 days was 1000 µg/mL.

Question: What about the solubility at 3 days ([3]; organic solvent or mixture, IPA, 45° C., read-out: Solubility at 45° C.) of the same compound?
Answer: The solubility at 3 days was 7000 µg/mL.

Question: What about the solubility at 3 days ([3]; organic solvent or mixture, MEK, 15° C., read-out: Solubility at 15° C.) of the same compound?
Answer: Its solubility at 3 days is 11000 µg/mL.

Question: And the solubility at 3 days ([3]; organic solvent or mixture, MEK, 45° C., read-out: Solubility at 45° C.)?
Answer: Its solubility at 3 days is 23000 µg/mL.

Question: What about the solubility at 3 days ([3]; organic solvent or mixture, MTBE, 15° C., read-out: Solubility at 15° C.) of the same compound?
Answer: Its solubility at 3 days is < 1000 µg/mL.

Question: And the solubility at 3 days ([3]; organic solvent or mixture, MTBE, 45° C., read-out: Solubility at 45° C.)?
Answer: The solubility at 3 days was 5000 µg/mL.

Question: And the solubility at 3 days ([3]; organic solvent or mixture, MeOH, 15° C., read-out: Solubility at 15° C.)?
Answer: Its solubility at 3 days is 5000 µg/mL.

Question: What about the solubility at 3 days ([3]; organic solvent or mixture, MeOH, 45° C., read-out: Solubility at 45° C.) of the same compound?
Answer: Its solubility at 3 days is 13000 µg/mL.

Question: And the solubility at 3 days ([3]; organic solvent or mixture, THF, 15° C., read-out: Solubility at 15° C.)?
Answer: The solubility at 3 days was 40000 µg/mL.

Question: What about the solubility at 3 days ([3]; organic solvent or mixture, THF, 45° C., read-out: Solubility at 45° C.) of the same compound?
Answer: The solubility at 3 days was 96000 µg/mL.

Question: And the solubility at 3 days ([3]; organic solvent or mixture, Toluene, 15° C., read-out: Solubility at 15° C.)?
Answer: Its solubility at 3 days is 1000 µg/mL.

Question: What about the solubility at 3 days ([3]; organic solvent or mixture, Toluene, 45° C., read-out: Solubility at 45° C.) of the same compound?
Answer: Its solubility at 3 days is 7000 µg/mL.

Question: And the solubility at 3 days ([3]; Water, 15° C., read-out: Solubility at 15° C.)?
Answer: The solubility at 3 days was < 1000 µg/mL.

Question: What about the solubility at 3 days ([3]; Water, 45° C., read-out: Solubility at 45° C.) of the same compound?
Answer: The solubility at 3 days was < 1000 µg/mL.

Question: What about the “moisture level (KF)” value ([4]; after drying at 45° C. under vacuum for an additional 70 hours) of the same compound?
Answer: The value was 4.1%.

Question: And the “moisture level (KF)” value ([4]; dried sample in glove bag with open container of water, after 4 hours)?
Answer: Its value is 5.0%.

Question: And the “moisture level (KF)” value ([4]; dried sample in glove bag with open container of water, after 18.5 hours)?
Answer: Its value is 4.8%.

Question: And the “moisture level (KF)” value ([4]; dried sample in glove bag with open container of water, after 51 hours)?
Answer: The value was 4.9%.

Question: And the “dissolution in diluent mixture” value [5, 7]?
Answer: Its value is “dissolved completely”.

Question: What about the “stability during the DVS and drying tests (in words)” value [6] of the same compound?
Answer: Its value is “remained stable”.

Question: What about the “mass gained in DVS” value ([6]; at 95% RH) of the same compound?
Answer: Its value is ~0.1%.

Question: What about the “post-DVS sample versus pre-DVS sample by XRPD” value [6, 7] of the same compound?
Answer: The value was “no transformation had taken place”.

Question: Which “dissolution in diluent mixture” value ([5]; listed as anhydrous plinabulin (Form 3)) does the source give for `CC(C)(C)c1[nH]cnc1/C=c1\[nH]c(=O)/c(=C/c2ccccc2)[nH]c1=O` [Form 3] here?
Answer: The value was “insoluble particles”.

Question: What about the “post-DVS sample versus pre-DVS sample by XRPD” value [6] of the same compound?
Answer: Its value is “differed from the pre-DVS sample”.

Question: And the “mass lost in DVS” value ([6]; at 90% RH)?
Answer: The value was “about 0.2%”.

Question: With `CC(C)(C)c1[nH]cnc1/C=c1\[nH]c(=O)/c(=C/c2ccccc2)[nH]c1=O` [plinabulin compound, (3Z,6Z)-3-Benzylidene-6-{[5-(2-methyl-2-propanyl)-1H-imidazol-4-yl]methylene}-2,5-piperazinedione] as the compound, how does the “solubility (in words)” value ([3]; THF) read?
Answer: Its value is “highly soluble”.
